Laboratory results from US6831079B1, “Vasopressin agonist formulation and process” (American Cyanamid Company, priority 1999, dated 2004).

What was measured:
[1] = target: T1, Vasopressin V2 (Rattus norvegicus, UniProt Q00788); assay: Vasopressin V2 agonist effects in normal conscious homozygous Brattleboro rats with central diabetes insipidus; assay type: in vivo; parameters: from tissue; host or cells: whole living homozygous Brattleboro rat; the receptor is the animal's own; details: Brattleboro (BB) rats, 10 mg/kg oral; for Osmolality (% Increase): change in osmolality as percent of control; for Urine Volume (% decrease): vs. control, urine collected six hours
Source text: Vasopressin V2 Agonist Effects of Test Compounds in Normal Conscious Homozygous Brattleboro Rats with Central Diabetes Insipidus
Male or female homozygous Brattleboro rats (Harlan Sprague Dawley, Inc., Indianapolis, Ind.) of 250-350 g body weight were supplied with standard rodent diet (Purina Rodent Lab. Chow 5001) and water ad libitum. On the day of test, rats were placed individually into metabolic cages equipped with devices to separate the feces from the urine and containers for collection of urine. Test compound or reference agent was given at an oral dose of 1 to 10 mg/kg in a volume of 10 ml/kg. The vehicle used was 20% dimethylsulfoxide (DMSO) in 2.5% preboiled corn starch. During the test, rats were provided with water ad libitum. Urine was collected for six hours after dosing of the test compound. At the end of six hours, urine volume was measured. Urinary osmolality was determined using a Fiske One-Ten Osmometer (Fiske Associates, Norwood, Mass., 02062) or an Advanced CRYOMATIC Osmometer, Model 3C2 (Advanced Instruments, Norwood, Mass.). Determinations of Na^+, K^+ and Cl^− ion were carried out using ion specific electrodes in a Beckman SYNCHRON EL-ISE Electrolyte System analyzer. This animal model was mainly used for evaluation of potency and duration of action of the active compounds.

[2] = target: T1, Vasopressin V2; assay: Vasopressin V2 agonist effects in normal conscious water-loaded rats; assay type: in vivo; parameters: from tissue; host or cells: whole living Sprague-Dawley rat; the receptor is the animal's own (renal, by own knowledge); details: Sprague-Dawley (CD) rats, 10 mg/kg oral; for Osmolality (% Increase): change in osmolality as percent of control; for Urine Volume (% decrease): vs. control, urine collected four hours
Source text: Vasopressin V2 Agonist Effects of Test Compounds in Normal Conscious Water-loaded Rats
Male or female normotensive Sprague-Dawley rats (Charles River Laboratories, Inc., Kingston, N.Y.) of 350-500 g body weight were supplied with standard rodent diet (Purina Rodent Lab. Chow 5001) and water ad libitum. On the day of test, rats were placed individually into metabolic cages equipped with devices to separate the feces from the urine and containers for collection of urine. […] The vehicle used was 20% dimethylsulfoxide (DMSO) in 2.5% preboiled corn starch. Thirty minutes after dosing the test compound, rats were gavaged with water at 30 ml/kg into the stomach using a feeding needle. During the test, rats were not provided with water or food. Urine was collected for four hours after dosing of the test compound. At the end of four hours, urine volume was measured. Urinary osmolality was determined using a Fiske One-Ten Osmometer (Fiske Associates, Norwood, Mass., 02062) or an Advanced CRYOMATIC Osmometer, Model 3C.2 (Advanced Instruments, Norwood, Mass.). Determinations of Na^+, K^+ and Cl^− ion were carried out using ion specific electrodes in a Beckman SYNCHRON EL-ISE Electrolyte System analyzer. The urinary osmolality should increase proportionally. In the screening test, two rats were used for each compound. If the difference in the urine volume of the two rats was greater than 50%, a third rat was used.

T1 sequence (Q00788 whole entry): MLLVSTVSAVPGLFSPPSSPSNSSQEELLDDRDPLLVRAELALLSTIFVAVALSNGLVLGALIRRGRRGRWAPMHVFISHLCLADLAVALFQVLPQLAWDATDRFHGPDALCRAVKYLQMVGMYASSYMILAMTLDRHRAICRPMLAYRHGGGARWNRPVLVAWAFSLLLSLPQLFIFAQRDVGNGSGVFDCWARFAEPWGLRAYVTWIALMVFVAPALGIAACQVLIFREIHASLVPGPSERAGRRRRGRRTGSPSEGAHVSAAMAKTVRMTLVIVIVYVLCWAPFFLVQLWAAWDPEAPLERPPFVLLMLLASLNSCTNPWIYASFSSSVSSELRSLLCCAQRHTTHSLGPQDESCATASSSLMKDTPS

| Structure (SMILES) | Osmolality (% Increase) [1] [%] | Urine Volume (% decrease) [1] [%] | melting point | Osmolality (% Increase) [2] [%] | Urine Volume (% decrease) [2] [%] |
| --- | --- | --- | --- | --- | --- |
| O=C(c1ccc(-c2ccn(C(=O)c3ccc(Cl)cc3Cl)n2)cc1)N1Cc2cccn2Cc2ccccc21 [Example 38, {4-[1-(2,4-Dichloro-benzoyl)-1H-pyrazol-3-yl]-phenyl}-(5H,11H-pyrrolo[2,1-c][1,4]benzodiazepin-10-yl)-methanone] | 256 | 66 | 180 to 182 °C | – | – |
| O=C(O)c1ccc(C(=O)N2Cc3cccn3Cc3ccccc32)c(Cl)c1 [Example 78, 3-Chloro-4-(5H,11H-Pyrrolo[2,1-c][1,4]benzodiazepine-10-carbonyl)-benzoic Acid] | – | – | 198 to 199 °C | 115 | 21 |
| NC(=O)c1ccc(C(=O)N2Cc3cccn3Cc3ccccc32)c(Cl)c1 [Example 79, 3-Chloro-4-(5H,11H-pyrrolo[2,1-c][1,4]benzodiazepine-10-carbonyl)-benzamide] | – | – | 211 to 212 °C | 123 | 38 |
| O=C(c1ccc(-c2ncn[nH]2)cc1Cl)N1Cc2cccn2Cc2ccccc21 [Example 83, [2-Chloro-4-(2H-1,2,4-triazol-3-yl)-phenyl]-(5H,11H-pyrrolo[2,1-c][1,4]-benzodiazepin-10-yl)-methanone] | – | – | 174 to 177 °C | 442 | 85 |
| O=C(c1ccc(-c2nnn[nH]2)cc1Cl)N1Cc2cccn2Cc2ccccc21 [Example 86, [2-Chloro-4-(1H-tetrazol-5-yl)-phenyl]-(5H,11H-pyrrolo[2,1-c][1,4]benzodiazepin-10-yl)-methanone] | – | – | 218 to 220 °C | 86 | 5 |
| Cc1ccn(-c2ccc(C(=O)N3Cc4ccc(CN(C)C)n4Cc4ccccc43)c(Cl)c2)n1 [Example 87, [2-Chloro-4-(3-methyl-pyrazol-1-yl)-phenyl]-(3-dimethylaminomethyl-5H,11H-pyrrolo[2,1-c][1,4]benzodiazepin-10-yl)-methanone] | – | – | 100 to 102 °C | 214 | 71 |
| Cc1ccn(-c2ccc(C(=O)N3Cc4ccc(Br)n4Cc4ccccc43)c(Cl)c2)n1 [Example 88, (3-Bromo-5H,11H-pyrrolo[2,1-c][1,4]benzodiazepin-10-yl)-[2-chloro-4-(3-methyl-pyrazol-1-yl)-phenyl]-methanone] | – | – | 148 to 149 °C (dec.) | 226 | 68 |
| Cc1ccn(-c2ccc(C(=O)O)c(Cl)c2)n1 [Example 97, 2-Chloro-4-(3-methyl-1H-pyrazol-1-yl)-benzoic Acid] | – | – | 192 to 193 °C | 106 | 3 |
| O=C(c1ccc(-n2cccn2)nc1Cl)N1Cc2cccn2Cc2ccccc21 [Example 99, (2-Chloro-6-pyrazol-1-yl-pyridin-3-yl)-(5H,11H-pyrrolo[2,1-c][1,4]benzodiazepin-10-yl)-methanone] | – | – | 133 to 135 °C | 205 | 43 |
| Cc1cnn(-c2ccc(C(=O)N3Cc4cccn4Cc4ccccc43)c(Cl)n2)c1 [Example 101, [2-Chloro-6-(4-methylpyrazol-1-yl)-pyridin-3-yl](5H,11H-pyrrolo[2,1-c][1,4]benzodiazepin-10-yl)-methanone] | – | – | 155 to 156 °C | 376 | 76 |
| CC(=O)c1ccc(C(=O)N2Cc3cccn3Cc3ccccc32)c(Cl)c1 [Example 121, 1-[4-(5H,11H-pyrrolo[2,1-c][1,4]benzodiazepine-10-carbonyl)-3-chlorophenyl]-ethanone] | – | – | 98 to 100 °C | 155 | 22 |

Results, then the compound that gave them:

| Osmolality (% Increase) [1] [%] | Urine Volume (% decrease) [1] [%] | melting point | Osmolality (% Increase) [2] [%] | Urine Volume (% decrease) [2] [%] | Structure (SMILES) |
| --- | --- | --- | --- | --- | --- |
| 334 | 81 | – | – | – | CC(=O)n1ccc(-c2ccc(C(=O)N3Cc4cccn4Cc4ccccc43)cc2)n1 [Example 30, 1-{3-[4-(5H,11H-Pyrrolo[2,1-c][1,4]benzodiazepine-10-carbonyl)-phenyl]-pyrazol-1-yl}-ethanone] |
| 407 | 76 | – | – | – | O=C(c1ccc(-c2ccn(C(=O)c3cccs3)n2)cc1)N1Cc2cccn2Cc2ccccc21 [Example 34, (5H,11-Pyrrolo[2,1-c][1,4]benzodiazepin-10-yl)-{4-[1-(thiophene-2-carbonyl)-1H-pyrazoly-3-yl]phenyl}-methanone] |
| 164 | 66 | 170 to 173 °C | – | – | Cc1ccccc1C(=O)n1ccc(-c2ccc(C(=O)N3Cc4cccn4Cc4ccccc43)cc2)n1 [Example 36, {4-[1-(2-Methyl-benzoyl)-1H-pyrazol-3-yl]-phenyl}-(5H,11H-pyrrolo[2,1-c][1,4]benzodiazepin-10-yl)-methanone] |
| – | – | 200 to 201 °C | 164 | 80 | Cn1cc(-c2ccc(C(=O)N3Cc4cccn4Cc4ccccc43)cc2)cn1 [Example 55, [4-(1-Methyl-1H-pyrazol-4-yl)-phenyl]-(5H,11H-pyrrolo[2,1-c][1,4]-benzodiazepin-10-yl)-methanone] |
| – | – | 173 to 175 °C | 288 | 77 | Cn1cc(-c2ccc(C(=O)N3Cc4cccn4Cc4ccccc43)cn2)cn1 [Example 57, [6-(1-Methyl-1H-pyrazol-4-yl)-pyridin-3-yl]-(5H,11H-pyrrolo[2,1-c][1,4]-benzodiazepin-10-yl)-methanone] |
| – | – | 179 to 181 °C | 165 | 54 | Cc1cnn(-c2ccc(C(=O)N3Cc4cccn4Cc4ccccc43)cc2)c1 [Example 60, [4-(4-Methyl-pyrazol-1-yl)-phenyl]-(5H,11H-pyrrolo[2,1-c][1,4]-benzodiazepin-10-yl)-methanone] |
| – | – | 166 to 167 °C | 150 | 22 | O=C(c1ccc(-n2ccc(C(F)(F)F)n2)cc1)N1Cc2cccn2Cc2ccccc21 [Example 62, (5H,11H-Pyrrolo[2,1-c][1,4]benzodiazepin-10-yl)-[4-(3-trifluoromethyl-pyrazol-1-yl)-phenyl]-methanone] |
| – | – | 140 to 145 °C | 349 | 79 | Cc1cn(-c2ccc(C(=O)N3Cc4cccn4Cc4ccccc43)cc2)cn1 [Example 64, [4-(4-Methyl-imidazol-1-yl)-phenyl]-(5H,11H-pyrrolo[2,1-c][1,4]-benzodiazepin-10-yl)-methanone] |
| – | – | 148.5 to 150 °C | 264 | 84 | Cn1ccc(-c2ccc(C(=O)N3Cc4cccn4Cc4ccccc43)c(Cl)c2)n1 [Example 71, [2-Chloro-4-(1-methyl-1H-pyrazol-3-yl)-phenyl]-(5H,11H-pyrrolo[2,1-c]-[1,4]benzodiazepine-10-yl)-methanone] |
| – | – | 192 to 193 °C | 454 | 69 | Cc1ccn(-c2ccc(C(=O)N3Cc4cccn4Cc4ccccc43)c(F)c2)n1 [Example 92, [2-Fluoro-4-(3-methyl-pyrazol-1-yl)-phenyl]-(5H,11H-pyrrolo[2,1-c][1,4]-benzodiazepin-10-yl)-methanone] |
| – | – | 171 to 172 °C | 248 | 24 | Cc1ccn(-c2ccc(C(=O)N3Cc4cccn4Cc4ccccc43)c(Cl)n2)n1 [Example 100, [2-Chloro-6-(3-methylpyrazol-1-yl)-pyridin-3-yl]-(5H,11H-pyrrolo[2,1-c][1,4]benzodiazepin-10-yl)-methanone] |
